The test system of the assay is pERK in MKN1 cells. Nature of the assay: cells. The class given is cell-based. Particulars: Homo sapiens.
Setting [1] is: MKN-1, pERK inhibition, In-Cell Western, MKN1 or H358 cells (Table 24 does not say which), 0.5-1 hour incubation, read-out: IC50.

Like-named read-outs stand apart in the source and are kept apart here.

The term IC50 denotes the midpoint of a concentration-inhibition curve. As to `Cc1c([C@@H](C)Nc2nncc3ccc(N4CCOCC4C)cc23)cccc1C(F)(F)F` (stereo partly drawn) [Example 1-27, N-((R)-1-(2-methyl-3-(trifluoromethyl)phenyl)ethyl)-7-(3-methylmorpholino)phthalazin-1-amine], the half-maximal inhibitory concentration (IC50) under setting [1] came to 0.061 µM.

As for `Cc1cc(C)n(-c2ccc3c(C)nnc(N[C@H](C)c4cccc(C(F)(F)F)c4C)c3c2)n1` [Example 10-14, (R)-7-(3,5-dimethyl-1H-pyrazol-1-yl)-4-methyl-N-(1-(2-methyl-3-(trifluoromethyl)phenyl)ethyl)phthalazin-1-amine], the half-inhibitory concentration (IC50) under setting [1] came out at 1.15 µM.

As for `Cc1c([C@@H](C)Nc2nncc3ccc(OC4CC5CCC(C4)N5C)cc23)cccc1C(F)(F)F` (stereo partly drawn) [Example 2-10, N-((R)-1-(2-methyl-3-(trifluoromethyl)phenyl)ethyl)-7-((8-methyl-8-azabicyclo[3.2.1]octan-3-yl)oxy)phthalazin-1-amine], under setting [1], the IC50 was 0.223 µM.

With `Cc1c([C@@H](C)Nc2nncc3ccc(N4CCCC(N(C)C)C4)cc23)cccc1C(F)(F)F` (stereo partly drawn) [Example 1-36, 7-(3-(dimethylamino)piperidin-1-yl)-N-((R)-1-(2-methyl-3-(trifluoromethyl)phenyl)ethyl)phthalazin-1-amine], the IC50 under setting [1] came to 0.125 µM.

Consider `Cc1c([C@@H](C)Nc2nncc3ccc(N4CCC5(CCCN(C)C5)C4)cc23)cccc1C(F)(F)F` (stereo partly drawn) [Example 1-34, N-((R)-1-(2-methyl-3-(trifluoromethyl)phenyl)ethyl)-7-(7-methyl-2,7-diazaspiro[4.5]decan-2-yl)phthalazin-1-amine], for which, under setting [1], the IC50 was found to be 0.119 µM.

`Cc1c([C@@H](C)Nc2nncc3ccc(N4CCCN(C)CC4)cc23)cccc1C(F)(F)F` [Example 1-29, (R)-7-(4-methyl-1,4-diazepan-1-yl)-N-(1-(2-methyl-3-(trifluoromethyl)phenyl)ethyl)phthalazin-1-amine]: the 50% inhibitory concentration (IC50) under setting [1] turned out to be 0.071 µM.

Take `Cc1c([C@@H](C)Nc2nnc(C)c3cnc(N4C[C@@H](C)O[C@@H](C)C4)cc23)cccc1C(F)(F)F` [Example 12-4]: the IC50 under setting [1] amounted to 0.37 µM.

`Cc1c([C@@H](C)Nc2nnc(C)c3ccc(C4CCNCC4)cc23)cccc1C(F)(F)F` [Example 10-1, (R)-4-methyl-N-(1-(2-methyl-3-(trifluoromethyl)phenyl)ethyl)-7-(piperidin-4-yl)phthalazin-1-amine] registered an IC50 (MKN-1) of 0.183 µM.

In the case of `Cc1c([C@@H](C)Nc2nncc3ccc(N4CCCCC(N(C)C)C4)cc23)cccc1C(F)(F)F` (stereo partly drawn) [Example 1-50, 7-(3-(dimethylamino)azepan-1-yl)-N-((R)-1-(2-methyl-3-(trifluoromethyl)phenyl)ethyl)phthalazin-1-amine], the half-maximal inhibitory concentration (IC50) under setting [1] came out at 0.453 µM.

As to `Cc1c([C@@H](C)Nc2nncc3ccc(N4CCC5C(CCCN5C)C4)cc23)cccc1C(F)(F)F` (stereo partly drawn) [Example 1-42, N-((R)-1-(2-methyl-3-(trifluoromethyl)phenyl)ethyl)-7-(1-methyloctahydro-1,6-naphthyridin-6(2H)-yl)phthalazin-1-amine], under setting [1], the half-maximal inhibitory concentration (IC50) came to 0.201 µM.

As for `Cc1c([C@@H](C)Nc2nncc3ccc(OC4CCN(C)C4)cc23)cccc1C(F)(F)F` (stereo partly drawn) [Example 2-7, N-((R)-1-(2-methyl-3-(trifluoromethyl)phenyl)ethyl)-7-((1-methylpyrrolidin-3-yl)oxy)phthalazin-1-amine], the IC50 under setting [1] worked out at 0.142 µM.

Regarding `Cc1c([C@@H](C)Nc2nncc3ccc(N4CCn5c(nc6ccccc65)C4)cc23)cccc1C(F)(F)F` [Example 1-46, (R)-7-(3,4-dihydrobenzo[4,5]imidazo[1,2-a]pyrazin-2(1H)-yl)-N-(1-(2-methyl-3-(trifluoromethyl)phenyl)ethyl)phthalazin-1-amine], under setting [1], the IC50 was determined as 0.341 µM.

On to `Cc1c([C@@H](C)Nc2nnc(C)c3ccc(-n4ncc5c4CNC5)cc23)cccc1C(F)(F)F` [Example 10-15, (R)-7-(5,6-dihydropyrrolo[3,4-c]pyrazol-1(4H)-yl)-4-methyl-N-(1-(2-methyl-3-(trifluoromethyl)phenyl)ethyl)phthalazin-1-amine], for which, under setting [1], the half-inhibitory concentration (IC50) worked out at 0.844 µM.

Source of the values: US11702418B2, “SOS1 inhibitors” (priority 2019, dated 2023).
